In US20110015135A1, “Antitumoral Treatments” (Pharma Mar S.A., priority 2008, published 2011):

Key:
HT29 cell line = assay: cells
Method: (§1) Experiments were performed in triplicate.

DLD1 cell line = assay: cells
Method: as §1

DV90 cell line = assay: cells; assay type: cell-based, human
Method: (§2) a. […] Experiments were performed in triplicate.

A549 cell line = assay: cells; assay type: cell-based, human; conditions: 72 hours of drug exposure
Method: as §2

HOP62 cell line = assay: cells; assay type: cell-based, human
Method: as §2

MDA-MB-231 cell line = assay: cells
Method: as §1
(§3) a. In the first set of assays, ICso values were determined for each drug after 72 hours of drug exposure in each of the tumor cell lines.

MDA-MB-435 cell line = assay: cells
Method: as §1, §3

MCF7 cell line = assay: cells
Method: as §1, §3

mouse leukemia (P388) = conditions: reported in EP 610.078; cited from earlier work
colon (HT-29) = conditions: reported in EP 610.078; cited from earlier work
[1] = tested on: non-small cell lung (A549); conditions: reported in EP 610.078; cited from earlier work
[2] = HT29, 72 hours of drug exposure
[3] = DLD1, 72 hours of drug exposure
[4] = MDA-MB-231, 72 hours of drug exposure
[5] = MDA-MB-435, 72 hours of drug exposure
[6] = MCF7, 72 hours of drug exposure

Row | Compound | IC50 (HT29 cell line; [2]) [nM] | IC50 (DLD1 cell line; [3]) [nM] | IC50 (DV90 cell line; 72 hours of drug exposure) [nM] | IC50 (A549 cell line) [nM] | IC50 (HOP62 cell line; 72 hours of drug exposure) [nM] | IC50 (MDA-MB-231 cell line; [4]) [nM] | IC50 (MDA-MB-435 cell line; [5]) [nM] | IC50 (MCF7 cell line; [6]) [nM] | IC50 (HT29 cell line; Homo sapiens, HT-29, 72 h) [nM] | IC50 (DLD1 cell line; Homo sapiens, DLD-1, 72 h) [nM] | IC50 (DV90 cell line; Homo sapiens, DV-90, 72 hours of drug exposure) [nM] | IC50 (A549 cell line; Homo sapiens) [nM] | IC50 (HOP62 cell line; Homo sapiens, HOP-62, 72 hours of drug exposure) [nM] | IC50 (MDA-MB-231 cell line; Homo sapiens, MDA-MB-231, 72 h) [nM] | IC50 (MDA-MB-435 cell line; Homo sapiens, MDA-MB-435, 72 h) [nM] | IC50 (MCF7 cell line; Homo sapiens, MCF7, 72 h) [nM] | in vitro activity (mouse leukemia (P388)) | in vitro activity (colon (HT-29)) | in vitro activity [1]
1 | N.N.[Cl][Pt][Cl] [Cisplatin] | 6600 | 24800 | 16500 | 8250 | 8250 | 8250 | 2640 | 16500 |  |  |  |  |  |  |  |  |  |  | 
2 | Nc1ccn([C@@H]2O[C@H](CO)[C@@H](O)C2(F)F)c(=O)n1 [Gemcitabine] | 550 | 2000 | 400 | 4 | 750 | 1000 | 40 | 900 |  |  |  |  |  |  |  |  |  |  | 
3 | C/C=C1\NC(=O)[C@H](Cc2ccccc2)NC(=O)[C@@H](C(C)C)NC(=O)[C@@H]([C@@H](C)CC)NC(=O)[C@H](NC(=O)[C@H](NC(=O)[C@H](CCCN)NC(=O)[C@H]2CCCN2C(=O)[C@H](NC(=O)[C@@H](NC(=O)[C@@H](NC(=O)[C@H](NC(=O)CC[C@@H](C)CC)C(C)C)[C@@H](C)O)C(C)C)C(C)C)[C@@H](C)CC)[C@@H](C)OC(=O)[C@H](C(C)C)NC1=O [PM02734, (4S)-MeHex-D-Val-L-Thr-L-Val-D-Val-D-Pro-L-Orn-D-allo-Ile-cyclo(D-allo-Thr-D-allo-Ile-D-Val-L-Phe-Z-Dhb-L-Val)] | 550 | 350 | 300 | 200 | 4000 | 6500 | 500 | 600 |  |  |  |  |  |  |  |  |  |  | 
4 | CC(=O)O[C@H]1C(=O)[C@@]2(C)[C@H]([C@H](OC(=O)c3ccccc3)[C@]3(O)C[C@H](OC(=O)[C@H](O)[C@@H](NC(=O)c4ccccc4)c4ccccc4)C(C)=C1C3(C)C)[C@]1(OC(C)=O)CO[C@@H]1C[C@@H]2O [Paclitaxel] |  |  |  |  |  |  |  |  | 10 | 40 | 30 | 7 | 40 | 25 | 25 | 7.5 |  |  | 
5 | Kahalalide F |  |  |  |  |  |  |  |  |  |  |  |  |  |  |  |  | micromolar activity | micromolar activity | micromolar activity
